# Patent US7557222B2, “1-[(4-Ethynylphenyl)]-2-[(phenyl)]-pyrrolidine-1,2-dicarboxamide derivatives as inhibitors of coagulation factors Xa and VIIa for the treatment of thrombosis” (priority 2003, dated 2009)
# Molecular target: T1, TF/FVIIa (Homo sapiens, UniProt P08709)
# T1 construct: Coagulation factor VIIa initiates the extrinsic part of the coagulation cascade
# Assay: TF/FVIIa inhibition (TF/FVIIa-IC50)
# Type: biochemical
# Settings: not given
# T1 sequence (P08709 61-212): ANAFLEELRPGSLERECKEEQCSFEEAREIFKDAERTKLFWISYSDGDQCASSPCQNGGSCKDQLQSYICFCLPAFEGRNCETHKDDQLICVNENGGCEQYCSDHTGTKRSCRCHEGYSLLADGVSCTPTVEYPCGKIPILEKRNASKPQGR
# T1 sequence (P08709 213-466): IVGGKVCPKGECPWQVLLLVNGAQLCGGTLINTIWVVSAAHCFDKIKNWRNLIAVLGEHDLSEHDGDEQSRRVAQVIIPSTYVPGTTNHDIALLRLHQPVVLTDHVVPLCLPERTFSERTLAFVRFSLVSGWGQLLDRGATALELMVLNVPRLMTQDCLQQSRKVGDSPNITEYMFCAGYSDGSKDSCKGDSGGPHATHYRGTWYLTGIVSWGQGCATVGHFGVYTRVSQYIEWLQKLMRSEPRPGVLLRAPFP
# T1 sequence (P13726 33-295, further chain): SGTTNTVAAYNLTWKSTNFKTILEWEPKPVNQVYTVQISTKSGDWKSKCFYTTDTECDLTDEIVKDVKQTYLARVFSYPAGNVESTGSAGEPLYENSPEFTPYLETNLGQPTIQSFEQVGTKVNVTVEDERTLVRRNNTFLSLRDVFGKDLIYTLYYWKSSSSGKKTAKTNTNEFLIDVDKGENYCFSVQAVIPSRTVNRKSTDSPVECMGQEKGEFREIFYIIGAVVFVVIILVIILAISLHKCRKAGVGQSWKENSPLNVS
row,Structure (SMILES),IC50 [nM]
1,"C#Cc1ccc(NC(=O)N2C[C@H](OC)C[C@@H]2C(=O)Nc2ccc(-n3ccccc3=O)cc2)cc1 [Compound A1, 1-[(4-ethynylphenyl)]-2-{[4-(2-oxo-2H-pyridin-1-yl)phenyl]}-(2R,4R)-4-methoxypyrrolidine-1,2-dicarboxamide]",1.9
2,"C#Cc1ccc(NC(=O)N2C[C@H](OC)C[C@@H]2C(=O)Nc2ccc(N3CCOCC3=O)cc2)cc1 [Compound A2, 1-[(4-ethynylphenyl)]-2-{[4-(3-oxomorpholin-4-yl)phenyl]}-(2R,4R)-4-methoxypyrrolidine-1,2-dicarboxamide]",3.2

# Molecular target: FXa (Homo sapiens, UniProt P00742)
# Sequence (P00742 235-488 limits assumed): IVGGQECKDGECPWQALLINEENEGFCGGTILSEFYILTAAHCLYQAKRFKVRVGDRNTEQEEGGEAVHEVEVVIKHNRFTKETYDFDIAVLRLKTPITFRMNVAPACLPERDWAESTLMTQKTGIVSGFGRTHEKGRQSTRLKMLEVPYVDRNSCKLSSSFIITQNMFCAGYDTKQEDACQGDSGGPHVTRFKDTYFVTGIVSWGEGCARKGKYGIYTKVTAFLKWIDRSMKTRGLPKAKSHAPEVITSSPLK
# Sequence (P00742 41-179 partner limits assumed): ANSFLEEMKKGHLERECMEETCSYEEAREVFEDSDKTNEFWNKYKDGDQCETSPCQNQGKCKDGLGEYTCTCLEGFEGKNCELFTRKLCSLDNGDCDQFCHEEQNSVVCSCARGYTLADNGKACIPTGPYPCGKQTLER
# Assay: Factor Xa inhibition (FXa-IC50)
# Type: biochemical
# Settings: not given
row,Structure (SMILES),IC50 [nM]
1,"C#Cc1ccc(NC(=O)N2C[C@H](OC)C[C@@H]2C(=O)Nc2ccc(-n3ccccc3=O)cc2)cc1 [Compound A1, 1-[(4-ethynylphenyl)]-2-{[4-(2-oxo-2H-pyridin-1-yl)phenyl]}-(2R,4R)-4-methoxypyrrolidine-1,2-dicarboxamide]",1.3
2,"C#Cc1ccc(NC(=O)N2C[C@H](OC)C[C@@H]2C(=O)Nc2ccc(N3CCOCC3=O)cc2)cc1 [Compound A2, 1-[(4-ethynylphenyl)]-2-{[4-(3-oxomorpholin-4-yl)phenyl]}-(2R,4R)-4-methoxypyrrolidine-1,2-dicarboxamide]",3.1

# Same assay, conditions: read-out: FXa-IC50
row,Structure (SMILES),IC50 [nM]
1,"C#Cc1ccc(NC(=O)N2CC(OCC)CC2C(=O)Nc2ccc(N3CCCCC3=O)cc2)cc1 [Compound A4-1, 1-[(4-ethynylphenyl)]-2-{[4-(2-oxopiperidin-1-yl)phenyl]}-(2R,4R)-4-ethoxypyrrolidine-1,2-dicarboxamide]",3
2,"C#Cc1ccc(NC(=O)N2CC(OCC)CC2C(=O)Nc2ccc(-n3ccccc3=O)c(F)c2)cc1 [Compound A4-2, 1-[(4-ethynylphenyl)]-2-{[3-fluoro-4-(2-oxo-2H-pyridin-1-yl)phenyl]}-(2R,4R)-4-ethoxypyrrolidine-1,2-dicarboxamide]",1.9
3,"C#Cc1ccc(NC(=O)N2CC(O)CC2C(=O)Nc2ccc3c(c2)CCN3C(C)=O)cc1 [Compound A4-3, 1-[(4-ethynylphenyl)]-2-{[1-acetyl-2,3-dihydro-1H-indol-5-yl]}-(2R,4R)-4-hydroxypyrrolidine-1,2-dicarboxamide]",2600
4,"C#Cc1ccc(NC(=O)N2CC(OC)CC2C(=O)Nc2ccc(-n3ccccc3=O)c(OC)c2)cc1 [Compound A4-4, 1-[(4-ethynylphenyl)]-2-{[3-methoxy-4-(2-oxo-2H-pyridin-1-yl)phenyl]}-(2R,4R)-4-methoxypyrrolidine-1,2-dicarboxamide]",2.8
5,"C#Cc1ccc(NC(=O)N2CC(OCC=C)CC2C(=O)Nc2ccc(N3CCOCC3=O)cc2)cc1 [Compound A4-5, 1-[(4-ethynylphenyl)]-2-{[4-(3-oxomorpholin-4-yl)phenyl]}-(2R,4R)-4-allyloxypyrrolidine-1,2-dicarboxamide]",3.1
6,"C#CCO[C@@H]1C[C@H](C(=O)Nc2ccc(N3CCOCC3=O)cc2)N(C(=O)Nc2ccc(C#C)cc2)C1 [Compound A4-6, 1-[(4-ethynylphenyl)]-2-{[4-(3-oxomorpholin-4-yl)phenyl]}-(2R,4R)-4-propargyloxypyrrolidine-1,2-dicarboxamide]",1.3
7,"C#Cc1ccc(NC(=O)N2CC(OCC(O)CO)CC2C(=O)Nc2ccc(N3CCOCC3=O)cc2)cc1 [Compound A4-7, 1-[(4-ethynylphenyl)]-2-{[4-(3-oxomorpholin-4-yl)phenyl]}-(2R,4R)-4-(2,3-dihydroxypropoxy)pyrrolidine-1,2-dicarboxamide]",3.1
8,"C#Cc1ccc(NC(=O)N2CC(OC)CC2C(=O)Nc2ccc(N3CC(O)CC3C(=O)OC)cc2)cc1 [Compound A4-8, 1-[(4-ethynylphenyl)]-2-{[4-(2-methoxycarbonyl-4-hydroxypyrrolidin-1-yl)phenyl]}-(2R,4R)-4-methoxypyrrolidine-1,2-dicarboxamide]",1100
9,"C#Cc1ccc(NC(=O)N2C[C@H](OCCOC)C[C@@H]2C(=O)Nc2ccc(N3CCOCC3=O)cc2)cc1 [Compound A4-9, 1-[(4-ethynylphenyl)]-2-{[4-(3-oxomorpholin-4-yl)phenyl]}-(2R,4R)-4-(methoxyethoxy)pyrrolidine-1,2-dicarboxamide]",3.3
10,"C#Cc1ccc(NC(=O)N2C[C@H](OCC(=O)OC)C[C@@H]2C(=O)Nc2ccc(N3CCOCC3=O)cc2)cc1 [Compound A4-10, 1-[(4-ethynylphenyl)]-2-{[4-(3-oxomorpholin-4-yl)phenyl]}-(2R,4R)-4-(methoxycarbonylmethoxy)pyrrolidine-1,2-dicarboxamide]",4.2
11,"C#Cc1ccc(NC(=O)N2C[C@H](OCC(=O)O)C[C@@H]2C(=O)Nc2ccc(N3CCOCC3=O)cc2)cc1 [Compound A4-11, 1-[(4-ethynylphenyl)]-2-{[4-(3-oxomorpholin-4-yl)phenyl]}-(2R,4R)-4-(carboxymethoxy)pyrrolidine-1,2-dicarboxamide]",4.8
12,"C#Cc1ccc(NC(=O)N2C[C@H](OC)C[C@@H]2C(=O)Nc2ccc(-n3nc(C)ccc3=O)cc2)cc1 [Compound A4-12, 1-[(4-ethynylphenyl)]-2-{[4-(6-methyl-3-oxo-2H-pyridazin-2-yl)phenyl]}-(2R,4R)-4-methoxypyrrolidine-1,2-dicarboxamide]",2100
